Columns and labels:
Histamine H1 receptor [1] = molecular target: T1, Histamine H1 receptor (Homo sapiens, UniProt P35367); experiment: Agonist activity at human H1 receptor expressed in insect Sf9 cells co-expressing RGS4 assessed as gamma[32P]GTP binding by liquid scintillation counting
Histamine H2 receptor [2] = molecular target: T2, Histamine H2 receptor (Homo sapiens, UniProt P25021); experiment: Agonist activity at human H2 receptor expressed in insect Sf9 cells co-expressing GsalphaS fusion protein assessed as gamma[32P]GTP binding by liquid scintillation counting
Histamine H3 receptor [3] = molecular target: T3, Histamine H3 receptor (Homo sapiens, UniProt Q9Y5N1); experiment: Agonist activity at human H3 receptor expressed in insect Sf9 cells co-expressing Gialpha2, Gbeta1gamma2 and RGS4 assessed as gamma[32P]GTP binding by liquid scintillation counting
Histamine H4 receptor [4] = molecular target: T4, Histamine H4 receptor (Homo sapiens, UniProt Q9H3N8); experiment: Agonist activity at human H4 receptor expressed in insect Sf9 cells co-expressing RGS19 fusion protein and Gialpha2, Gbeta1gamma2 assessed as gamma[32P]GTP binding by liquid scintillation counting
Histamine H1 receptor [5] = molecular target: Histamine H1 receptor (Cavia porcellus, UniProt P31389); experiment: Antagonist activity at histamine H1 receptor in guinea pig ileum assessed as inhibition of histamine-induced contractions; type: functional, tissue-based; details: read-out: pA2 (converted)
Histamine H2 receptor [6] = molecular target: T5, Histamine H2 receptor (Cavia porcellus, UniProt P47747); experiment: Agonist activity at histamine H2 receptor in guinea pig atrium assessed as increase in heart rate; type: functional, tissue-based, Cardiac atrium
Histamine H2 receptor [7] = molecular target: T5, Histamine H2 receptor; experiment: Antagonist activity at histamine H2 receptor in guinea pig right atrium assessed as inhibition of histamine-induced increase in heart rate; type: functional, tissue-based, Cardiac atrium; details: read-out: pA2 (converted)
Histamine H3 receptor [8] = molecular target: T3, Histamine H3 receptor; experiment: Antagonist activity at human H3 receptor expressed in insect Sf9 cells co-expressing Gialpha2, Gbeta1gamma2 and RGS4 assessed as inhibition of histamine-induced gamma[32P]GTP binding by liquid scintillation counting
Histamine H4 receptor [9] = molecular target: T4, Histamine H4 receptor; experiment: Antagonist activity at human H4 receptor expressed in insect Sf9 cells co-expressing RGS19 fusion protein and Gialpha2, Gbeta1gamma2 assessed as inhibition of histamine-induced gamma[32P]GTP binding by liquid scintillation counting
Histamine H1 receptor [10] = molecular target: T1, Histamine H1 receptor; experiment: Intrinsic activity at human H1 receptor expressed in insect Sf9 cells co-expressing RGS4 assessed as gamma[32P]GTP binding at 10 uM by liquid scintillation counting relative to histamine
Histamine H2 receptor [11] = molecular target: T2, Histamine H2 receptor; experiment: Intrinsic activity at human H2 receptor expressed in insect Sf9 cells co-expressing GsalphaS fusion protein assessed as gamma[32P]GTP binding at 10 uM by liquid scintillation counting relative to histamine
Histamine H3 receptor [12] = molecular target: T3, Histamine H3 receptor; experiment: Intrinsic activity at human H3 receptor expressed in insect Sf9 cells co-expressing Gialpha2, Gbeta1gamma2 and RGS4 assessed as gamma[32P]GTP binding at 10 uM by liquid scintillation counting relative to histamine
Histamine H4 receptor [13] = molecular target: T4, Histamine H4 receptor; experiment: Intrinsic activity at human H4 receptor expressed in insect Sf9 cells co-expressing RGS19 fusion protein and Gialpha2, Gbeta1gamma2 assessed as gamma[32P]GTP binding at 10 uM by liquid scintillation counting relative to histamine
Histamine H1 receptor [14] = molecular target: T1, Histamine H1 receptor; experiment: Antagonist activity at human H1 receptor expressed in insect Sf9 cells co-expressing RGS4 assessed as inhibition of histamine-induced gamma[32P]GTP binding by liquid scintillation counting
[15] = molecular target: Histamine H2 receptor (Cavia porcellus) (UniProt P47747); experiment: Agonist activity at histamine H2 receptor in guinea pig atrium assessed as maximal increase in heart rate relative to histamine; type: functional, tissue-based; details: Cardiac atrium
Homo sapiens [16] = species: Homo sapiens; experiment: Selectivity ratio of EC50 for human H1R to EC50 for human H4R
Homo sapiens [17] = species: Homo sapiens; experiment: Selectivity ratio of EC50 for human H2R to EC50 for human H4R

Histamine H2 receptor (Cavia porcellus), sequence (P47747 whole entry): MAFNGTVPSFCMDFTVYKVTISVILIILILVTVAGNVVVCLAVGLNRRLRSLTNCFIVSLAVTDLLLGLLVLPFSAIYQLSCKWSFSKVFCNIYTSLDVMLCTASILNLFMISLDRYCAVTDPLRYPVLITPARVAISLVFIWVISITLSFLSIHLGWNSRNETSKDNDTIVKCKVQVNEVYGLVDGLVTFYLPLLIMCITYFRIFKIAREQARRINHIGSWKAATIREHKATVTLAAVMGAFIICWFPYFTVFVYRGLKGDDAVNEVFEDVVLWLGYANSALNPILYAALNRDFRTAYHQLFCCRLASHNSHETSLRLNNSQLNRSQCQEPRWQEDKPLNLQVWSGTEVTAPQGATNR
T5 sequence (P47747 whole entry): as above
T3 sequence (Q9Y5N1 whole entry, the tested form may be a part): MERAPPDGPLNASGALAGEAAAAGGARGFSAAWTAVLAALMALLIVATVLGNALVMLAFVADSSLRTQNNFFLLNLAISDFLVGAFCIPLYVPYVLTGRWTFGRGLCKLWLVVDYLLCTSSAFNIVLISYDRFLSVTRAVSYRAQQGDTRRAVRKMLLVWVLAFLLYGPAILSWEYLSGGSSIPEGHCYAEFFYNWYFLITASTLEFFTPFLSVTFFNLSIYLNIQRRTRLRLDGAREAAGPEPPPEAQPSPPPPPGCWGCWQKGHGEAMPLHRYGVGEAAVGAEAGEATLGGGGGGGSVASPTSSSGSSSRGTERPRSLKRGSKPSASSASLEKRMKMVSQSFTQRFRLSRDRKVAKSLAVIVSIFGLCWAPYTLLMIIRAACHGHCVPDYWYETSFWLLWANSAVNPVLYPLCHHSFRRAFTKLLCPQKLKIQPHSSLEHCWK
T2 sequence (P25021 whole entry, the tested form may be a part): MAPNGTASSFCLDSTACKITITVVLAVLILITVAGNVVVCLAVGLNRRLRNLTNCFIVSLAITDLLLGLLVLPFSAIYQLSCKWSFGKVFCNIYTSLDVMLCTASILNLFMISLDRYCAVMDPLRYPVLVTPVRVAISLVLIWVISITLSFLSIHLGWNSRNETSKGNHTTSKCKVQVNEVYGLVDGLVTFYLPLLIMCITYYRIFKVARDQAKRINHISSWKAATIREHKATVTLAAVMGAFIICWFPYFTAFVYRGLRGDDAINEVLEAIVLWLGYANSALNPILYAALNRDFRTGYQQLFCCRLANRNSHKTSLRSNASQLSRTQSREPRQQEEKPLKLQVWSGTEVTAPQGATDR
Histamine H1 receptor (Cavia porcellus, UniProt P31389), sequence (P31389 whole entry): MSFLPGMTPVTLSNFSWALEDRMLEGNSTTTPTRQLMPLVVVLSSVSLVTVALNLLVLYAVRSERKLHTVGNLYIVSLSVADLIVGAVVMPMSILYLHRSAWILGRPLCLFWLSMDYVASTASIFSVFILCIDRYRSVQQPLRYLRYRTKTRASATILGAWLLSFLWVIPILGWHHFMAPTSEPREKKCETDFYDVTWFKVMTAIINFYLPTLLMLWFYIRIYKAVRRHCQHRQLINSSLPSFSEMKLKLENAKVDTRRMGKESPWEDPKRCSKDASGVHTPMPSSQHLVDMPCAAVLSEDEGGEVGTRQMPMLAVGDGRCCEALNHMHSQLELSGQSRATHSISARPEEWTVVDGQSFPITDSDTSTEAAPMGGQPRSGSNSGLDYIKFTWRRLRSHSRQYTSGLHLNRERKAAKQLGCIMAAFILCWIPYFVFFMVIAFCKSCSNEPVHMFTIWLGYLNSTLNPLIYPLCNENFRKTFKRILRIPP
T4 sequence (Q9H3N8 whole entry, the tested form may be a part): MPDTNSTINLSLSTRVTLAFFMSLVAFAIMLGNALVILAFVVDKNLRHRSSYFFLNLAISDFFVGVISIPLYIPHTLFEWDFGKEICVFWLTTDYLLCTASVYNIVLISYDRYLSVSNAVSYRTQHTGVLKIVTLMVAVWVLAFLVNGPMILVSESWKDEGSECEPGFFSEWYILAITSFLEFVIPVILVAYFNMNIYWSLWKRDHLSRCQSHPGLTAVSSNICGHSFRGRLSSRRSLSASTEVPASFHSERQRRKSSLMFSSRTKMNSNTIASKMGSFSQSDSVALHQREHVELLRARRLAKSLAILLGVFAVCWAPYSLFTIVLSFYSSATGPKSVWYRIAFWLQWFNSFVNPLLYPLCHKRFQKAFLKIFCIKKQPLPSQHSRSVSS
T1 sequence (P35367 whole entry, the tested form may be a part): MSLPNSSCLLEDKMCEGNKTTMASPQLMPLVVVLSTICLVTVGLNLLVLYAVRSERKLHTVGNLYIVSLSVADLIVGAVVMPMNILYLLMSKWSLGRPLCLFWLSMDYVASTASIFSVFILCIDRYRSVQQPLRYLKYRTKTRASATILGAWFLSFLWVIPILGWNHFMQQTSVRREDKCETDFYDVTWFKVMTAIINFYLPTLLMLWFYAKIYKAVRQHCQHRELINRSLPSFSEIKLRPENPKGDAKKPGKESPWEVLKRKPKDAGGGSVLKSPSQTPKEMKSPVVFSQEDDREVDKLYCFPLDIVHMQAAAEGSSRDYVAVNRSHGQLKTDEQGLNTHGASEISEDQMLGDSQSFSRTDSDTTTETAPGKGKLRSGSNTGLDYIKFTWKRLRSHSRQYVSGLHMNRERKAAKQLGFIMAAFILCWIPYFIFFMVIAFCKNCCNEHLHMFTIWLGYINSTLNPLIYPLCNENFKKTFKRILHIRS

Row | Compound | EC50 (Histamine H1 receptor [1]) [µM] | EC50 (Histamine H2 receptor [2]) [µM] | EC50 (Histamine H3 receptor [3]) [µM] | EC50 (Histamine H4 receptor [4]) [µM] | Kb (Histamine H1 receptor [5]) [µM] | EC50 (Histamine H2 receptor [6]) [µM] | Kb (Histamine H2 receptor [7]) [µM] | pKb (Histamine H3 receptor [8]) | pKb (Histamine H4 receptor [9]) | Activity (Histamine H1 receptor [10]) | Activity (Histamine H2 receptor [11]) | Activity (Histamine H3 receptor [12]) | Activity (Histamine H4 receptor [13]) | pKb (Histamine H1 receptor [14]) | Activity [15] | Selectivity ratio (Homo sapiens [16]) | Selectivity ratio (Homo sapiens [17])
1 | CC(=O)NC(N)=NCCCc1cnc[nH]1 | 12.9 | 0.724 | 0.00363 | 0.0049 | 8.51 | 0.813 | 0.363 |  |  |  |  |  |  |  |  |  | 
2 | N/C(=N\C(=O)c1cc2ccccc2[nH]1)NCCCc1c[nH]cn1 | 1.7 | 0.288 |  |  |  |  |  | 6.96 | 6.43 | 0.42 | 0.87 | -0.38 | 0.21 |  |  |  | 
3 | N/C(=N\C(=O)CCCNC(=O)c1cc2ccccc2[nH]1)NCCCc1c[nH]cn1 |  | 0.0302 |  |  | 0.741 | 0.49 |  | 7.17 | 7.02 | 0.16 | 0.51 | -0.18 | -0.06 | 4.96 | 0.9 |  | 
4 | S=C(NC1CCCCC1)N1CCC(c2cnc[nH]2)CC1 |  |  |  |  |  |  |  |  |  |  |  | -0.71 | -0.95 |  |  |  | 
5 | CC(CC(=O)/N=C(\N)NCCCc1c[nH]cn1)c1ccccc1 (stereo not drawn) |  |  |  |  |  |  |  |  |  | 0.35 | 0.87 | 0.24 | 0.84 | < 4.9 | 0.99 |  | 
6 | CCC(=O)/N=C(\N)NCCCc1c[nH]cn1 | 3.47 | 0.372 | 0.00158 |  | 5.13 |  | 0.347 |  |  | 0.3 | 0.83 | 0.39 |  |  | 0.94 |  | 
7 | CC(C)C(=O)/N=C(\N)NCCCc1c[nH]cn1 | 2.57 | 0.11 | 0.00141 | 0.00372 | 7.76 | 0.11 | 0.302 |  |  | 0.35 | 0.86 | 0.26 | 0.94 |  | 0.98 |  | 
8 | N=C(N)NCCCc1c[nH]cn1 |  |  |  |  |  |  |  |  |  |  | 0.66 | 0.69 | 0.83 | < 5 |  |  | 
9 | N/C(=N\C(=O)Cc1c[nH]c2ccccc12)NCCCc1c[nH]cn1 |  | 0.0363 |  | 0.0191 | 0.0389 | 0.182 |  | 7.51 |  | 0 | 0.81 | -0.15 | 0.7 | 5.68 | 0.91 |  | 
10 | N/C(=N\C(=O)CCc1c[nH]c2ccccc12)NCCCc1c[nH]cn1 |  | 0.0813 |  | 0.00708 | 0.398 | 0.0776 | 0.437 | 7.57 |  | 0.09 | 0.77 | -0.18 | 0.45 | 5.4 | 1.01 |  | 
11 | CC(=O)/N=C(\N)NCCCc1c[nH]cn1 |  |  |  |  |  |  |  |  |  | 0.24 | 0.76 | 0.27 | 1 |  | 0.83 | > 1000 | > 100
12 | N/C(=N\C(=O)CCNC(=O)c1cc2ccccc2[nH]1)NCCCc1c[nH]cn1 |  | 0.0832 |  | 0.0331 |  |  |  | 7.17 |  |  | 0.33 | 0.1 | 0.37 |  |  |  | 
13 | N/C(=N\C(=O)CNC(=O)c1cc2ccccc2[nH]1)NCCCc1c[nH]cn1 |  | 0.955 | 0.0158 | 0.0282 |  |  |  |  |  |  | 0.51 | 0.45 | 0.71 |  |  |  | 
14 | CN(CCC(=O)/N=C(\N)NCCCc1c[nH]cn1)C(=O)c1cc2ccccc2[nH]1 |  | 0.347 | 0.011 | 0.151 | 3.02 | 3.55 |  |  |  |  | 0.68 | 0.3 | 0.52 |  | 0.84 |  | 
15 | CCCC(=O)/N=C(\N)NCCCc1c[nH]cn1 | 2.19 | 0.141 | 0.00158 | 0.00257 | 3.55 | 0.186 | 0.407 |  |  | 0.33 | 0.77 | 0.37 | 0.96 |  | 0.97 |  | 
16 | CC(CC(=O)NC(N)=NCCCc1cnc[nH]1)c1ccccc1 (stereo not drawn) |  |  | 0.00251 |  |  |  |  |  |  |  |  |  |  |  |  |  | 

— ChEMBL document CHEMBL1153419 (J Med Chem, 2009)
